Test results as given in PubChem BioAssay (NCI).
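All cell lines were grown in 96-well plates and treated with compound for 48 hours. Abbreviation: GI50, concentration required for 50% inhibition of growth. TGI: concentration producing complete growth inhibition.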

Columns and labels:
Assay in all cases: NCI anticancer screen, dose series, 48 h
786-0 renal = test system: 786-0 renal
A498 renal = test system: A498 renal
A549 NSCLC = test system: A549 NSCLC
ACHN renal = test system: ACHN renal
BT-549 breast = test system: BT-549 breast
CAKI-1 renal = test system: CAKI-1 renal
CCRF-CEM leukemia = test system: CCRF-CEM leukemia
COLO 205 colon = test system: COLO 205 colon
DU-145 prostate = test system: DU-145 prostate
EKVX NSCLC = test system: EKVX NSCLC
HCC-2998 colon = test system: HCC-2998 colon
HCT-116 colon = test system: HCT-116 colon
HCT-15 colon = test system: HCT-15 colon
HL-60(TB) leukemia = test system: HL-60(TB) leukemia
HOP-62 NSCLC = test system: HOP-62 NSCLC
HOP-92 NSCLC = test system: HOP-92 NSCLC
HS 578T breast = test system: HS 578T breast
HT29 colon = test system: HT29 colon
IGROV1 ovarian = test system: IGROV1 ovarian
K-562 leukemia = test system: K-562 leukemia
KM12 colon = test system: KM12 colon
LOX IMVI melanoma = test system: LOX IMVI melanoma
M14 melanoma = test system: M14 melanoma
MALME-3M melanoma = test system: MALME-3M melanoma
MCF7 breast = test system: MCF7 breast
MDA-MB-231 breast = test system: MDA-MB-231 breast
MDA-MB-435 = test system: MDA-MB-435
MOLT-4 leukemia = test system: MOLT-4 leukemia
NCI-H226 lung = test system: NCI-H226 lung
NCI-H23 lung = test system: NCI-H23 lung
NCI-H460 lung = test system: NCI-H460 lung
NCI-H522 lung = test system: NCI-H522 lung
NCI/ADR-RES ovarian = test system: NCI/ADR-RES ovarian
OVCAR-3 ovarian = test system: OVCAR-3 ovarian
OVCAR-4 ovarian = test system: OVCAR-4 ovarian
OVCAR-5 ovarian = test system: OVCAR-5 ovarian
OVCAR-8 ovarian = test system: OVCAR-8 ovarian
PC-3 prostate = test system: PC-3 prostate
RPMI-8226 leukemia = test system: RPMI-8226 leukemia
RXF 393 renal = test system: RXF 393 renal
SF-268 CNS = test system: SF-268 CNS
SF-295 CNS = test system: SF-295 CNS
SF-539 CNS = test system: SF-539 CNS
SK-MEL-2 melanoma = test system: SK-MEL-2 melanoma
SK-MEL-28 melanoma = test system: SK-MEL-28 melanoma
SK-MEL-5 melanoma = test system: SK-MEL-5 melanoma
SK-OV-3 ovarian = test system: SK-OV-3 ovarian
SN12C renal = test system: SN12C renal
SNB-19 CNS = test system: SNB-19 CNS
SNB-75 CNS = test system: SNB-75 CNS
SR leukemia = test system: SR leukemia
SW-620 colon = test system: SW-620 colon
T-47D breast = test system: T-47D breast
TK-10 renal = test system: TK-10 renal
U251 CNS = test system: U251 CNS
UACC-257 melanoma = test system: UACC-257 melanoma
UACC-62 melanoma = test system: UACC-62 melanoma
UO-31 renal = test system: UO-31 renal

`Fc1cnc(NC2CC2)nc1-c1cnc2ccc(N3CCOCC3)cn12` gave a GI50 (786-0 renal) of 322 nM, a TGI (786-0 renal) of 22.8 µM and a GI50 (A498 renal) of 168 nM. It also gave a TGI (A498 renal) of 430 nM, a GI50 (A549 NSCLC) of 292 nM and a TGI (A549 NSCLC) greater than 64.3 µM. The GI50 (ACHN renal) was 160 nM, the TGI (ACHN renal) was 10.6 µM and the GI50 (BT-549 breast) was 230 nM. It also gave a TGI (BT-549 breast) of 3.35 µM, a GI50 (CAKI-1 renal) of 122 nM and a TGI (CAKI-1 renal) of 12.5 µM. It also gave a GI50 (CCRF-CEM leukemia) of 325 nM, a TGI (CCRF-CEM leukemia) greater than 100 µM and a GI50 (COLO 205 colon) of 144 nM. For the same compound, the TGI (COLO 205 colon) was 428 nM, the GI50 (DU-145 prostate) was 323 nM and the TGI (DU-145 prostate) was greater than 60.9 µM. The GI50 (EKVX NSCLC) was 297 nM, the TGI (EKVX NSCLC) was 3.46 µM and the GI50 (HCC-2998 colon) was 305 nM. For the same compound, the TGI (HCC-2998 colon) was 2620 nM, the GI50 (HCT-116 colon) was 160 nM and the TGI (HCT-116 colon) was greater than 56.3 µM. The GI50 (HCT-15 colon) was 266 nM, the TGI (HCT-15 colon) was 14.5 µM and the GI50 (HL-60(TB) leukemia) was 304 nM. For the same compound, the TGI (HL-60(TB) leukemia) was 1010 nM, the GI50 (HOP-62 NSCLC) was 306 nM and the TGI (HOP-62 NSCLC) was greater than 44.8 µM. It also gave a GI50 (HOP-92 NSCLC) of 116 nM, a TGI (HOP-92 NSCLC) of 461 nM and a GI50 (HS 578T breast) of 265 nM. For the same compound, the TGI (HS 578T breast) was 2460 nM, the GI50 (HT29 colon) was 251 nM and the TGI (HT29 colon) was greater than 58.3 µM. The GI50 (IGROV1 ovarian) was 268 nM, the TGI (IGROV1 ovarian) was 17.5 µM and the GI50 (K-562 leukemia) was 441 nM. For the same compound, the TGI (K-562 leukemia) was greater than 100 µM, the GI50 (KM12 colon) was 237 nM and the TGI (KM12 colon) was 3.97 µM. It also gave a GI50 (LOX IMVI melanoma) of 90 nM, a TGI (LOX IMVI melanoma) of 12.5 µM and a GI50 (M14 melanoma) of 279 nM. The TGI (M14 melanoma) was 1010 nM, the GI50 (MALME-3M melanoma) was 340 nM and the TGI (MALME-3M melanoma) was 1060 nM. For the same compound, the GI50 (MCF7 breast) was 272 nM, the TGI (MCF7 breast) was 6.91 µM and the GI50 (MDA-MB-231 breast) was 203 nM. The TGI (MDA-MB-231 breast) was 1680 nM, the GI50 (MDA-MB-435) was 272 nM and the TGI (MDA-MB-435) was 992 nM. For the same compound, the GI50 (MOLT-4 leukemia) was 346 nM, the GI50 (NCI-H226 lung) was 201 nM and the TGI (NCI-H226 lung) was 1390 nM. For the same compound, the GI50 (NCI-H23 lung) was 242 nM, the TGI (NCI-H23 lung) was 957 nM and the GI50 (NCI-H460 lung) was 291 nM. For the same compound, the TGI (NCI-H460 lung) was 10.2 µM, the GI50 (NCI-H522 lung) was 374 nM and the TGI (NCI-H522 lung) was 6.11 µM. For the same compound, the GI50 (NCI/ADR-RES ovarian) was 276 nM, the TGI (NCI/ADR-RES ovarian) was 4.7 µM and the GI50 (OVCAR-3 ovarian) was 258 nM. For the same compound, the TGI (OVCAR-3 ovarian) was greater than 32.6 µM, the GI50 (OVCAR-4 ovarian) was 306 nM and the TGI (OVCAR-4 ovarian) was 3.06 µM. For the same compound, the GI50 (OVCAR-5 ovarian) was 188 nM, the TGI (OVCAR-5 ovarian) was 3.13 µM and the GI50 (OVCAR-8 ovarian) was 284 nM. The TGI (OVCAR-8 ovarian) was greater than 73.9 µM, the GI50 (PC-3 prostate) was 276 nM and the TGI (PC-3 prostate) was 8.6 µM. The GI50 (RPMI-8226 leukemia) was 292 nM, the TGI (RPMI-8226 leukemia) was 1710 nM and the GI50 (RXF 393 renal) was 93.2 nM. For the same compound, the TGI (RXF 393 renal) was 303 nM, the GI50 (SF-268 CNS) was 296 nM and the TGI (SF-268 CNS) was 6.85 µM. It also gave a GI50 (SF-295 CNS) of 299 nM, a TGI (SF-295 CNS) of 12.1 µM and a GI50 (SF-539 CNS) of 164 nM. It also gave a TGI (SF-539 CNS) of 538 nM, a GI50 (SK-MEL-2 melanoma) of 218 nM and a TGI (SK-MEL-2 melanoma) of 641 nM. For the same compound, the GI50 (SK-MEL-28 melanoma) was 252 nM, the TGI (SK-MEL-28 melanoma) was 1270 nM and the GI50 (SK-MEL-5 melanoma) was 231 nM. It also gave a TGI (SK-MEL-5 melanoma) of 706 nM, a GI50 (SK-OV-3 ovarian) of 781 nM and a TGI (SK-OV-3 ovarian) of 81.9 µM. The GI50 (SN12C renal) was 242 nM, the TGI (SN12C renal) was 5.57 µM and the GI50 (SNB-19 CNS) was 290 nM. It also gave a TGI (SNB-19 CNS) of 17.7 µM, a GI50 (SNB-75 CNS) of 158 nM and a TGI (SNB-75 CNS) of 475 nM. It also gave a GI50 (SR leukemia) of 128 nM, a GI50 (SW-620 colon) of 292 nM and a TGI (SW-620 colon) of 12.4 µM. The GI50 (T-47D breast) was 299 nM, the TGI (T-47D breast) was 18.6 µM and the GI50 (TK-10 renal) was 357 nM. For the same compound, the TGI (TK-10 renal) was 54.2 µM, the GI50 (U251 CNS) was 271 nM and the TGI (U251 CNS) was greater than 42.4 µM. The GI50 (UACC-257 melanoma) was 380 nM, the TGI (UACC-257 melanoma) was 11.2 µM and the GI50 (UACC-62 melanoma) was 200 nM. For the same compound, the TGI (UACC-62 melanoma) was 699 nM, the GI50 (UO-31 renal) was 282 nM and the TGI (UO-31 renal) was 11.1 µM.
